A short description of data set [1]: Cytotoxicity assay (alamarBlue cell viability). Format: cell-based, Human. To be noted: human, A549 cells. The method, then:
1.4. Cytotoxicity assay. The cytotoxicity of the compounds was measured using the AlarmBlue cell viability assay (Invitrogen) according to the manufacturer's instructions. Actively dividing A549 cells were incubated with compounds for 48 h. After the incubation the alamarBlue reagent was added to the cells ( 1/10th alamarBlue reagent in culture medium) for an extra 4 h. The 50% cell cytotoxic concentration (CC50) of the molecules was calculated according to Cheng et al.42 The selectivity index (SI) was evaluated as the ratio of CC50 to IC50, where the IC50 is defined as the concentration of compound that inhibits HAdV infection by 50%.
For orientation: The colour change of resazurin is a common sign of viable cells or microbes.

In data set [2] the test system is HAdV5-GFP. The data set is described as follows: Plaque assay, HAdV5-GFP in 293β5 cells. Format: cell-based. Particulars: read-out: Percentage of plaque formation inhibition, HAdV5-GFP, 10 μM, 293β5 cell line. The method, then: 1.5. Plaque assay. For low MOI infections, active compounds were further evaluated in a plaque assay. 293β5 cells were seeded in 6-well plates at 4×10^5 cells per well in duplicate for each condition. When cells reached 80-90% confluency, they were infected with HAdV5-GFP or HAdV16-GFP (0.06 vp/cell) and rocked for 2 h at 37° C. The inoculum was removed and the cells were washed once with PBS. The cells were then carefully overlaid with 4 ml/well of equal parts of 1.6% […] Difco Agar Noble (Becton, Dickinson & Co, Sparks, MD) and 2× EMEM (BioWhittaker) supplemented with 2x penicillin/streptomycin, 2× L-glutamine and 10% FBS. The mixture also contained compound in concentrations ranging from 5 to 1 μM. Following incubation for 7 days at 37° C., plates were scanned with a Typhoon 9410 imager (GE Healthcare Life Sciences), and plaques were quantified with ImageJ.43
For the plaque assay 293β5 cells were infected with HAdV5-GFP (in the presence of compound at 10 μM) (Table 2). From this generation of compounds, our primary screening identified 4 compounds (12, 13, 22 and 25) that inhibited HAdV5-GFP plaque formation >90% compared to a control with the same volume of DMSO.

The text below walks through data of patent publication US20190308956A1, “PIPERAZINE DERIVATIVES AS ANTIVIRAL AGENTS WITH INCREASED THERAPEUTIC ACTIVITY” (SERVICIO ANDALUZ DE SALUD, priority 2016, published 2019).

In turn, `CC(C)(C)C(=O)N1CCN(C(=O)Nc2ccc(C#N)cc2)C(c2ccccc2)C1` (stereo not shown) [Compound 57, 1-[(4-Cyanophenyl)aminocarbonyl]-2-phenyl-4-pivaloylpiperazine] showed a melting point of 151 to 153 °C. In data set [1] (48 h), this molecule registered a CC50 at 48 h of 147 ± 38 µM. In addition, in data set [2], the inhibition at 10 µM came to 84 ± 6.75%.
Turning to `CC1CN(C(=O)OC(C)(C)C)CCN1C(=O)c1ccc([N+](=O)[O-])cc1` (stereo not shown) [Compound 10, 4-tert-Butoxycarbonyl-2-methyl-1-(4-nitrobenzoyl)piperazine], the melting point lay within 115 to 117 °C. For the same molecule, the inhibition at 10 µM in data set [2] amounted to 33.6 ± 2.17%.
In the case of `CC1CN(C(=O)c2cc3ccccc3o2)CCN1C(=O)Nc1ccccc1F` (stereo not shown) [Compound 37, 4-(Benzofuran-2-carbonyl)-1-[(2-fluorophenyl)aminocarbonyl]-2-methylpiperazine], the melting point lay in the range of 127 to 129 °C. For the same molecule, in data set [2], the inhibition at 10 µM stood at 50.9 ± 4.13%.
In turn, `CC1CN(C(=O)c2cc3ccccc3o2)CCN1C(=O)Nc1ccc(F)cc1` (stereo not shown) [Compound 35, 4-(Benzofuran-2-carbonyl)-1-[(4-fluorophenyl)aminocarbonyl]-2-methylpiperazine] returned a melting point of 93 to 95 °C. This molecule also displayed a CC50 at 48 h in data set [1] above 200 µM. In data set [1] (48 h), this molecule gave a CC50 at 48 h of 221 ± 29 µM. For the same molecule, in data set [2], the inhibition at 10 µM fell in the range of 91 to 100%.
With `O=C(c1cc2ccccc2o1)N1CCN(C(=O)Nc2ccc(C(F)(F)F)cc2)C(c2ccccc2)C1` (stereo not shown) [Compound 61, 4-(Benzofuran-2-carbonyl)-2-phenyl-1-[(4-trifluoromethylphenyl)aminocarbonyl]piperazine], the melting point was in the range of 134 to 136 °C. The CC50 at 48 h in data set [1] (48 h) turned out to be 70.7 ± 21.4 µM. The inhibition at 10 µM in data set [2] was determined as 100%.
Taken in the same sequence, the figures for `COc1ccc(NC(=O)N2CCN(C(=O)C(C)(C)C)CC2c2ccccc2)cc1` (stereo not shown) [Compound 58, 1-[(4-Methoxyphenyl)aminocarbonyl]-2-phenyl-4-pivaloylpiperazine] were 62 to 65 °C, 199 ± 33.6 µM and 70.1 ± 2.7%.
Take `COc1ccc(C(=O)N2CCN(C(=O)OC(C)(C)C)CC2C)cc1` (stereo not shown) [Compound 11, 4-tert-Butoxycarbonyl-1-(4-methoxybenzoyl)-2-methylpiperazine]: the melting point lay in the range of 84 to 87 °C. Further, the inhibition at 10 µM in data set [2] amounted to 33.8 ± 4.02%.
In turn, `CC(C)(C)OC(=O)N1CCN(C(=O)Nc2ccc(Cl)cc2)C(c2ccccc2)C1` (stereo not shown) [Compound 47, 4-tert-Butoxycarbonyl-1-[(4-chlorophenyl)aminocarbonyl]-2-phenylpiperazine] returned a CC50 at 48 h in data set [1] (48 h) of 17.1 ± 4.24 µM. The inhibition at 10 µM in data set [2] was 86.3 ± 6.35%.
`CC1CN(C(=O)OC(C)(C)C)CCN1C(=O)Nc1ccccc1[N+](=O)[O-]` (stereo not shown) [Compound 29, 4-tert-Butoxycarbonyl-2-methyl-1-[(2-nitrophenyl)aminocarbonyl]piperazine] displayed a melting point of 199 to 201 °C. Further, the inhibition at 10 µM in data set [2] was 50 ± 2.75%.
For `CC1CN(C(=O)c2cc3ccccc3o2)CCN1C(=O)Nc1ccc(C(F)(F)F)cc1` (stereo not shown) [Compound 33, 4-(Benzofuran-2-carbonyl)-2-methyl-1-[(4-trifluoromethylphenyl)aminocarbonyl]piperazine], the CC50 at 48 h in data set [1] (48 h) came to 82.2 ± 24.3 µM. In data set [2], the inhibition at 10 µM fell in the range of 91 to 100%.
Molecule `O=C(c1cc2ccccc2o1)N1CCN(C(=O)Nc2ccc(F)cc2)C(c2ccccc2)C1` (stereo not shown) [Compound 62, 4-(Benzofuran-2-carbonyl)-1-[(4-fluorophenyl)aminocarbonyl]-2-phenylpiperazine] yielded a melting point of 122 to 124 °C. Half-maximal cytotoxicity in data set [1] (48 h) (CC50 at 48 h) was put at 12.5 ± 0.79 µM. Moreover, the inhibition at 10 µM in data set [2] was found to be 98.81 ± 0.15%.
Consider `CC(C)(C)C(=O)N1CCN(C(=O)Nc2ccc([N+](=O)[O-])cc2)C(c2ccccc2)C1` (stereo not shown) [Compound 56, 1-[(4-Nitrophenyl)aminocarbonyl]-2-phenyl-4-pivaloylpiperazine], for which, in data set [1] (48 h), the midpoint of cytotoxicity, the CC50 at 48 h, lay at 102 ± 8.38 µM. Besides, in data set [2], the inhibition at 10 µM came to 43.8 ± 13.2%.
For `CC1CN(C(=O)c2cc3ccccc3o2)CCN1C(=O)Nc1ccc([N+](=O)[O-])cc1` (stereo not shown) [Compound 25, 4-(Benzofuran-2-carbonyl)-2-methyl-1-[(4-nitrophenyl)aminocarbonyl]piperazine], in that order: 51.1 ± 7.35 µM and above 90%.
With `CC1CN(C(=O)c2cc3ccccc3o2)CCN1C(=O)Nc1ccc(C#N)cc1` (stereo not shown) [Compound 34, 4-(Benzofuran-2-carbonyl)-1-[(4-cyanophenyl)aminocarbonyl]-2-methylpiperazine], in data set [1] (48 h), half-maximal cytotoxicity (CC50 at 48 h) was put at 118 ± 30.2 µM. Moreover, the inhibition at 10 µM in data set [2] stood at 83.2 ± 1.55%.
Molecule `CC1CN(C(=O)C(C)(C)C)CCN1C(=O)c1ccc([N+](=O)[O-])cc1` (stereo not shown) [Compound 15, 2-Methyl-1-(4-nitrobenzoyl)-4-pivaloylpiperazine] showed a melting point of 143 to 145 °C. In addition, the inhibition at 10 µM in data set [2] is 23.1 ± 3.71%.
Turning to `CC1CN(C(=O)OC(C)(C)C)CCN1C(=O)Nc1ccc(Cl)cc1` (stereo not shown) [Compound 27, 4-tert-Butoxycarbonyl-1-[(4-chlorophenyl)aminocarbonyl]-2-methylpiperazine], the midpoint of cytotoxicity in data set [1] (48 h), the CC50 at 48 h, lay at 150 ± 1.01 µM. Moreover, the inhibition at 10 µM in data set [2] worked out at 62.03 ± 0.26%.
For `CC(C)(C)OC(=O)N1CCN(C(=O)Nc2ccc(C(F)(F)F)cc2)C(c2ccccc2)C1` (stereo not shown) [Compound 48, 4-tert-Butoxycarbonyl-2-phenyl-1-[(4-trifluoromethylphenyl)aminocarbonyl]piperazine], in that order: 42.1 ± 28.6 µM and 71.51 ± 0.11%.
For `CC(C)(C)OC(=O)N1CCN(C(=O)Nc2cc(C(F)(F)F)ccc2Cl)C(c2ccccc2)C1` (stereo not shown) [Compound 52, 4-tert-Butoxycarbonyl-1-[(2-chloro-5-trifluoromethylphenyl)aminocarbonyl]-2-phenylpiperazine], in that order: 93.36 ± 0.73 µM and 100%.
Consider `COc1ccc(NC(=O)N2CCN(C(=O)c3cc4ccccc4o3)CC2C)cc1` (stereo not shown) [Compound 26, 4-(Benzofuran-2-carbonyl)-1-[(4-methoxyphenyl)aminocarbonyl]-2-methylpiperazine], for which the melting point was 170 to 172 °C. The inhibition at 10 µM in data set [2] amounted to 33.6 ± 14.7%.
Take `COc1ccc(C(=O)N2CCN(C(=O)C(C)(C)C)CC2C)cc1` (stereo not shown) [Compound 16, 1-(4-Methoxybenzoyl)-2-methyl-4-pivaloylpiperazine]: the melting point lay within 96 to 97 °C. The inhibition at 10 µM in data set [2] worked out at 0%.
In the case of `Cc1ccc(NC(=O)N2CCN(C(=O)OC(C)(C)C)CC2c2ccccc2)cc1` (stereo not shown) [Compound 55, 4-tert-Butoxycarbonyl-1-[(4-methylphenyl)aminocarbonyl]-2-phenylpiperazine], the CC50 at 48 h in data set [1] (48 h) is 165 ± 17.4 µM. Further, in data set [2], the inhibition at 10 µM was 63.02 ± 0.2%.
For `CC1CN(C(=O)c2cc3ccccc3o2)CCN1C(=O)Nc1ccc(F)cc1F` (stereo not shown) [Compound 39, 4-(Benzofuran-2-carbonyl)-1-[(2,4-difluorophenyl)aminocarbonyl]-2-methylpiperazine], the melting point fell in the range of 163 to 165 °C. In addition, the inhibition at 10 µM in data set [2] was determined as 34.2 ± 13.6%.
Taken in the same sequence, the figures for `CC1CN(C(=O)c2ccccc2)CCN1C(=O)c1ccc([N+](=O)[O-])cc1` (stereo not shown) [Compound 20, 4-Benzoyl-2-methyl-1-(4-nitrobenzoyl)piperazine] were 103 to 105 °C and 0%.

In general, CC50 refers to the concentration at which the toxic effect on the cells reaches its halfway point. High values mean lower toxicity to the cells, low ones greater toxicity to the cells. By melting point is commonly meant the temperature of the solid-liquid transition. For orientation: inhibition means the drop in the measured response relative to a control, in per cent.
